The values that follow come from paper PMC5981210, “Molecular recognition of wood polyphenols by phase II detoxification enzymes of the white rot Trametes versicolor” (Scientific Reports, 2018).

One experiment deals with T1, TvGSTO6S (Trametes versicolor, UniProt A0A384E158).
T1 construct: produced in E. coli Rosetta2 DE3 pLysS; homodimer; serine-type omega GST
T1 sequence (A0A384E158 1-246): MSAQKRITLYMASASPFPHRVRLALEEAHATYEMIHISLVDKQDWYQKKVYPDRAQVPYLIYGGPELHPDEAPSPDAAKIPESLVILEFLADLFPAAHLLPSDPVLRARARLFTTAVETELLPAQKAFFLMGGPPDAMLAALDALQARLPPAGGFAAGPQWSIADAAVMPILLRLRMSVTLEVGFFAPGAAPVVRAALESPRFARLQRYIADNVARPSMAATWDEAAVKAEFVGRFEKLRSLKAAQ
Nature of the experiment: thermal shift assay, SYPRO Orange. The class given is binding. Conditions: 100 µM ligand, 10 µM protein, Tris-HCl pH 8. An excerpt: thermal shift assay, SYPRO Orange on TvGSTO6S

The next experiment has as its target T2, TvGSTO1S (Trametes versicolor, UniProt R7S9J3).
T2 construct: gene TRAVEDRAFT_75639; produced in E. coli Rosetta2 DE3 pLysS
T2 sequence (R7S9J3 1-256): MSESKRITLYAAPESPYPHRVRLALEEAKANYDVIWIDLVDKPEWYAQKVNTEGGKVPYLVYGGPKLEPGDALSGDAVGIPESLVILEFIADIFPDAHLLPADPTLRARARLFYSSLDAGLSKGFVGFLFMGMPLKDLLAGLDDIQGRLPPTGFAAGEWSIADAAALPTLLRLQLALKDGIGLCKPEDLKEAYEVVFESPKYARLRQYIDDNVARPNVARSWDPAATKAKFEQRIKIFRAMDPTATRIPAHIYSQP
Nature of the experiment: thermal shift assay, SYPRO Orange. The experiment is classed as binding. Conditions: 100 µM ligand, 10 µM protein, Tris-HCl pH 8. The source says:
thermal shift assay, SYPRO Orange on TvGSTO1S

The target of a further experiment is T3, TvGSTO2S (Trametes versicolor, UniProt A0A452CSY5).
T3 construct: gene TRAPUB_12770; produced in E. coli Rosetta2 DE3 pLysS
T3 sequence (A0A452CSY5 1-239): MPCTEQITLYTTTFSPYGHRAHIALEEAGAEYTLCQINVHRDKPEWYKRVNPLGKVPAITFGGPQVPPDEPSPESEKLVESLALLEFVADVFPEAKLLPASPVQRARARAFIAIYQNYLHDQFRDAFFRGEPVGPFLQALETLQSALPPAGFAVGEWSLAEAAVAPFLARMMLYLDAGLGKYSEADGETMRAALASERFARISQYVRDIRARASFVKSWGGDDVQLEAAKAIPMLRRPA
Nature of the experiment: thermal shift assay, SYPRO Orange. Conditions: 100 µM ligand, 10 µM protein, Tris-HCl pH 8. The class given is binding. An excerpt: thermal shift assay, SYPRO Orange on TvGSTO2S

In the next experiment the target is T4, TvGSTO5S (Trametes versicolor, UniProt R7S6M8).
T4 construct: gene TRAVEDRAFT_54358; produced in E. coli Rosetta2 DE3 pLysS
T4 sequence (R7S6M8 1-241): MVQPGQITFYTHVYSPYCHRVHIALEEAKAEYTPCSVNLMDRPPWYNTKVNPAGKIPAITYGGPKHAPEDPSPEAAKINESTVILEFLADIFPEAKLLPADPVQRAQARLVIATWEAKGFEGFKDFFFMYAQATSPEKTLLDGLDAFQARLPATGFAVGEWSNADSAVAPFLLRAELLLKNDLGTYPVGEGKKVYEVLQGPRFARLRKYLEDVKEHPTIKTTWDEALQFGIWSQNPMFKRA
Nature of the experiment: thermal shift assay, SYPRO Orange. Conditions: 100 µM ligand, 10 µM protein, Tris-HCl pH 8. The class given is binding. The source says: thermal shift assay, SYPRO Orange on TvGSTO5S

The target of a further experiment is T5, TvGSTO3S (Trametes versicolor, UniProt A0A384E145).
T5 construct: produced in E. coli Rosetta2 DE3 pLysS; homodimer; serine-type omega GST
T5 sequence (A0A384E145 1-240): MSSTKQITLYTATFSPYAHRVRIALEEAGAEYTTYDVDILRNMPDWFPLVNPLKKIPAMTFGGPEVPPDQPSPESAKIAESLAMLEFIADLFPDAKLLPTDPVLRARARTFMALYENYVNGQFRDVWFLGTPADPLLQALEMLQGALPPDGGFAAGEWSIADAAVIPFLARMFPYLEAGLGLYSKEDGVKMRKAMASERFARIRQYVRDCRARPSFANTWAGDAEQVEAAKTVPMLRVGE
Nature of the experiment: inhibition of GSH-transferase activity, mixed model fit. The experiment is classed as biochemical. As to conditions: PEITC 25–300 µM as substrate, 1 mM GSH, 100 mM phosphate pH 6.4, 25 °C.

For experiment [1], the target named is Trametes versicolor glutathione transferase Omega 3S (TvGSTO3S) (Trametes versicolor). Put plainly: crystal structure; TvGSTO3S (13 mg/mL) crystallised by microbatch under oil at 278 K; 30% (w/v) PEG 400, 0.2 M calcium acetate, 0.1 M acetate buffer pH 4.5; apo and ligand complexes; homodimer in the crystal.
Experiment [2] addresses Trametes versicolor glutathione transferase Omega 6S (TvGSTO6S) (Trametes versicolor). Put plainly: crystal structure; TvGSTO6S (26 mg/mL) crystallised by hanging drop with seeding; 25% (w/v) PEG 1500, 0.1 M MMT buffer pH 6.5; apo and naringenin complex ('dry soaking'); homodimer in the crystal.

Regarding `O=C(c1ccc(O)cc1O)c1ccc(O)cc1O` [2,2′,4,4′-Tetrahydroxy benzophenone], the TvGSTO6S at TvGSTO6S worked out at 3.40 °C. In addition, the TvGSTO1S at TvGSTO1S turned out to be 3.74 °C.
Consider `O=C(c1ccccc1)c1ccc(O)c(O)c1O` [2,3,4-Trihydroxy benzophenone], for which the TvGSTO6S at TvGSTO6S is 4.15 °C. Moreover, on TvGSTO2S, the TvGSTO2S stood at 2.92 °C. In addition, on TvGSTO5S, the TvGSTO5S was -12.89 °C.
Take `O=C(c1ccc(O)cc1)c1ccc(O)cc1O` [2,4,4′-Trihydroxy benzophenone]: the TvGSTO1S on TvGSTO1S stood at 2.74 °C.
Consider `O=C(c1ccccc1)c1ccc(O)cc1O` [2,4-Dihydroxy benzophenone], for which the TvGSTO2S at TvGSTO2S was 2.56 °C.
Consider `COc1c(O)cc(O)c2c(=O)cc(-c3ccccc3)oc12` [wogonin], for which the affinity on TvGSTO3S, expressed as Ki, was 2890 ± 1240 nM.
As for “Trametes versicolor glutathione transferase Omega 3S (TvGSTO3S) (enzyme)”, in experiment [1], the stoichiometry N (as a rule, a count of units in the complex or per binding partner) amounted to 2.
Consider “Trametes versicolor glutathione transferase Omega 6S (TvGSTO6S) (enzyme)”, for which the stoichiometry N in experiment [2] was 2.
